Measurements as given in ChEMBL document CHEMBL1130573, “Anti-AIDS agents-XXVIII.1 Synthesis and Anti-HIV activity of methoxy substituted 3,4-Di-O-()-camphanoyl-(+)-cis-khellactone (DCK) analogues” (Bioorg Med Chem Lett, 1997).

Columns and labels:
[1] = Therapeutic index is the ratio of IC50 of compound to that of EC50; conditions: read-out: Therapeutic index
H9 [2] = assay: Inhibitory activity against gorwth of uninfected H9 cell growth by 50%; format: functional, cell-based; conditions: Homo sapiens
H9 [3] = assay: Anti-HIV activity was evaluated for the concentration that inhibits viral replication by 50%; format: functional, cell-based; conditions: Homo sapiens

| EC50 (H9 [3]) [nM] | Compound | selectivity ratio [1] | IC50 (H9 [2]) [nM] |
| --- | --- | --- | --- |
| 0.256 | CC1(C)Oc2ccc3ccc(=O)oc3c2[C@@H](OC(=O)C23CCC(C)(C(=O)O2)C3(C)C)[C@H]1OC(=O)C12CCC(C)(C(=O)O1)C2(C)C (stereo partly specified) | 137000 | 35000 |
| 0.138 | COc1cc2c(c3oc(=O)ccc13)[C@@H](OC(=O)C13CCC(C)(C(=O)O1)C3(C)C)[C@@H](OC(=O)C13CCC(C)(C(=O)O1)C3(C)C)C(C)(C)O2 (stereo partly specified) | > 403000 | > 153000 |
| 2.76 | COc1cc(=O)oc2c3c(ccc12)OC(C)(C)[C@H](OC(=O)C12CCC(C)(C(=O)O1)C2(C)C)[C@@H]3OC(=O)C12CCC(C)(C(=O)O1)C2(C)C (stereo partly specified) | > 51000 | > 153000 |
| 24500 | COc1cc2ccc(=O)oc2c2c1OC(C)(C)[C@H](OC(=O)C13CCC(C)(C(=O)O1)C3(C)C)[C@@H]2OC(=O)C12CCC(C)(C(=O)O1)C2(C)C (stereo partly specified) | > 9.68 | > 153000 |
| 6 | COc1cc2ccc3c(c2oc1=O)[C@@H](OC(=O)C12CCC(C)(C(=O)O1)C2(C)C)[C@@H](OC(=O)C12CCC(C)(C(=O)O1)C2(C)C)C(C)(C)O3 (stereo partly specified) | > 25500 | > 153000 |
| 45 | Cc1cn([C@H]2C[C@H](N=[N+]=[N-])[C@@H](CO)O2)c(=O)[nH]c1=O [ZIDOVUDINE] |  |  |
